Like-named read-outs stand apart in the source and are kept apart here.

The test system of one experiment is parental CHO-K1 cells. Nature of the experiment: cAMP accumulation, parental CHO-K1 cells. As to conditions: Supplementary Fig. 2e–g. It counts as cell-based, Chinese hamster. (Cyclic AMP is a second messenger, typically raised through Gs and lowered through Gi signalling.)
A further experiment deals with RXFP4 Q205H (Homo sapiens, UniProt Q8TDU9, Q205H). Nature of the experiment: cAMP accumulation, RXFP4 Q205H. The experiment is classed as cell-based. As to conditions: HEK293T. The source says: (§1) The full-length human RXFP4 (NCBI Reference Sequence: NM_181885.3) was cloned into a modified pFastBac vector (Invitrogen) with HA signal peptide to enhance receptor expression, followed by a 10× histidine tag and BRIL insertion at the N terminus. LgBiT subunit (Promega) was fused at the C terminus of RXFP4 connected by a 15-amino acid polypeptide linker. […] The engineered human Gαi2, Gβ1, bovine Gγ2, and scFv16 were cloned into the pFastBac vector (Invitrogen), respectively. For cAMP accumulation assay, human RXFP4 and RXFP3 (NCBI Reference Sequence: NM_016568.3) were cloned into pCMV6 constructs (OriGene Technologies). The mutant receptors were modified by site-directed mutagenesis in the setting of the WT constructs, with the primers designed by QuikChange Primer Design [QuickChange Primer Design (http://agilent.com.cn)] and carried out using Phanta Max Master (Vazyme). N-terminal Flag tag was added to both WT and mutant receptors for surface expression measurement. […]
RXFP4 Q205H, sequence (Q8TDU9 whole entry Q205H, the tested form may be a part): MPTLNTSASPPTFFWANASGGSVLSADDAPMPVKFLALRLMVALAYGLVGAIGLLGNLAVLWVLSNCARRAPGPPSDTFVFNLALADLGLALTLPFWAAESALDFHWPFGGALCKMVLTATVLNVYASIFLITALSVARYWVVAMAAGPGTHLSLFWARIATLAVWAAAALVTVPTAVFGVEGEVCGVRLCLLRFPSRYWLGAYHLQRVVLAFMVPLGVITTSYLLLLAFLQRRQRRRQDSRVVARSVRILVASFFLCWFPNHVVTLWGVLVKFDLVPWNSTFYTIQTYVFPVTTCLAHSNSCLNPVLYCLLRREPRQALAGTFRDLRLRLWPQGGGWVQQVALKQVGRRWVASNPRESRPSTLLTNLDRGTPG
(§2) CHO-K1 (ATCC, Cat#CCL-61) cells stably expressing human RXFP4 (hRXFP4-CHO) or RXFP3 (hRXFP3-CHO) were maintained in DMEM/F12 (Gibco) supplemented with 10% (v/v) fetal bovine serum (FBS) and 2 mM L-glutamine. […] Following 24 h culturing, the transfected cells were ready for detection.
(§3) Ligands were verified for their bioactivity in the beginning in hRXFP4-CHO, which were ready for use after 24 h culturing. […] The time-resolved fluorescence resonance energy transfer (TR-FRET) signals were detected by an EnVision multilabel plate reader (PerkinElmer) with the emission window ratio of 665 nm over 620 nm under 320 nm excitation. […]
(§4) Inhibition of forskolin-induced cAMP accumulation was performed in HEK293T cells transiently transfected with WT and mutant receptors. All the mutant constructs were modified by single-point mutation in the setting of the WT receptor. cAMP accumulation data were analyzed using a three-parameter logistic equation to determine pEC50 and Emax values. Emax values for mutants are defined as the window between the maximal response and vehicle control (no ligand) and expressed as a percentage of the WT. […]

A further experiment concerns the target T1, RXFP4 T121A (Homo sapiens, UniProt Q8TDU9, T121A).
T1 construct: RXFP4(1-374)-; expressed in transfected cells; host or cells: HEK293T, transient (pCMV6)
Nature of the experiment: cAMP accumulation, RXFP4 T121A. As to conditions: HEK293T. The experiment is classed as cell-based.
Source text: as §1, §2, §3, §4

A further experiment addresses T2, RXFP4 T295V (Homo sapiens, UniProt Q8TDU9, T295V).
T2 construct: RXFP4(1-374)-; expressed in transfected cells; host or cells: HEK293T, transient (pCMV6)
Nature of the experiment: cAMP accumulation, RXFP4 T295V. It counts as cell-based.
Source text: The full-length human RXFP4 (NCBI Reference Sequence: NM_181885.3) was cloned into a modified pFastBac vector (Invitrogen) with HA signal peptide to enhance receptor expression, followed by a 10× histidine tag and BRIL insertion at the N terminus. LgBiT subunit (Promega) was fused at the C terminus of RXFP4 connected by a 15-amino acid polypeptide linker. […] The engineered human Gαi2, Gβ1, bovine Gγ2, and scFv16 were cloned into the pFastBac vector (Invitrogen), respectively. For cAMP accumulation assay, human RXFP4 and RXFP3 (NCBI Reference Sequence: NM_016568.3) were cloned into pCMV6 constructs (OriGene Technologies). The mutant receptors were modified by site-directed mutagenesis in the setting of the WT constructs, with the primers designed by QuikChange Primer Design [QuickChange Primer Design (http://agilent.com.cn)] and carried out using Phanta Max Master (Vazyme). N-terminal Flag tag was added to both WT and mutant receptors for surface expression measurement. Sequences of all primers used in this study were provided in Supplementary Table 6, and all the constructs were confirmed by DNA sequencing.
CHO-K1 (ATCC, Cat#CCL-61) cells stably expressing human RXFP4 (hRXFP4-CHO) or RXFP3 (hRXFP3-CHO) were maintained in DMEM/F12 (Gibco) supplemented with 10% (v/v) fetal bovine serum (FBS) and 2 mM L-glutamine. Human embryonic kidney 293 T cells containing SV40 large T-antigen (HEK293T, ATCC, Cat#64127316) were maintained in DMEM (Gibco) supplemented with 10% (v/v) FBS, 1 mM sodium pyruvate (Gibco), 100 units/mL penicillin and 100 μg/mL streptomycin at 37 °C in 5% CO2. For cAMP assays in mutants, HEK293T cells were seeded onto 6-well cell culture plates at a density of 7 × 10^5 cells per well. […] Following 24 h culturing, the transfected cells were ready for detection.
as §3
as §4, with “WT. Cell surface expression was assessed by flow cytometry to detect the N-terminal Flag epitope label on the receptors and normalized to the WT receptor (shown as percentage).” for “WT.”

The target of the next experiment is T3, RXFP4 E100A (Homo sapiens, UniProt Q8TDU9, E100A).
T3 construct: RXFP4(1-374)-; expressed in transfected cells; host or cells: HEK293T, transient (pCMV6)
T3 sequence (Q8TDU9 whole entry E100A): as the sequence (Q8TDU9 whole entry Q205H, the tested form may be a part) above, with E100A, H205Q counted along it
Nature of the experiment: cAMP accumulation, RXFP4 E100A. It counts as cell-based. To be noted: HEK293T.
Source text: as §1, §2, §3, §4

In the next experiment the target is RXFP4 R208K (Homo sapiens, UniProt Q8TDU9, R208K). Nature of the experiment: cAMP accumulation, RXFP4 R208K. It counts as cell-based. As to conditions: HEK293T.
RXFP4 R208K, sequence (Q8TDU9 whole entry R208K): as the sequence (Q8TDU9 whole entry Q205H, the tested form may be a part) above, with H205Q, R208K counted along it
Source text: as §1, §2, §3, §4

The next experiment addresses T4, RXFP4 W279A (Homo sapiens, UniProt Q8TDU9, W279A).
T4 construct: RXFP4(1-374)-; expressed in transfected cells; host or cells: HEK293T, transient (pCMV6)
Nature of the experiment: cAMP accumulation, RXFP4 W279A. It counts as cell-based.
Source text: (§5) The full-length human RXFP4 (NCBI Reference Sequence: NM_181885.3) was cloned into a modified pFastBac vector (Invitrogen) with HA signal peptide to enhance receptor expression, followed by a 10× histidine tag and BRIL insertion at the N terminus. LgBiT subunit (Promega) was fused at the C terminus of RXFP4 connected by a 15-amino acid polypeptide linker. […] The engineered human Gαi2, Gβ1, bovine Gγ2, and scFv16 were cloned into the pFastBac vector (Invitrogen), respectively. For cAMP accumulation assay, human RXFP4 and RXFP3 (NCBI Reference Sequence: NM_016568.3) were cloned into pCMV6 constructs (OriGene Technologies). […]
as §2, §3

A further experiment has as its target T5, RXFP4 L118S (Homo sapiens, UniProt Q8TDU9, L118S).
T5 construct: RXFP4(1-374)-; expressed in transfected cells; host or cells: HEK293T, transient (pCMV6)
Nature of the experiment: cAMP accumulation, RXFP4 L118S. The experiment is classed as cell-based. To be noted: HEK293T.
Source text: as §5, §2, §3

Another experiment addresses T6, RXFP3 WT (Homo sapiens, UniProt Q9NSD7).
T6 construct: RXFP3(1-469)-; expressed in transfected cells; host or cells: HEK293T, transient (pCMV6)
Nature of the experiment: cAMP accumulation, WT RXFP3 (HEK293T). It counts as cell-based. As to conditions: WT and all the five RXFP3 mutants.
Source text: as §5, §2, §3

The next experiment deals with T7, RXFP4 V122S (Homo sapiens, UniProt Q8TDU9, V122S).
T7 construct: RXFP4(1-374)-; expressed in transfected cells; host or cells: HEK293T, transient (pCMV6)
T7 sequence (Q8TDU9 whole entry V122S): as the sequence (Q8TDU9 whole entry Q205H, the tested form may be a part) above, with V122S, H205Q counted along it
Nature of the experiment: cAMP accumulation, RXFP4 V122S. It counts as cell-based. As to conditions: HEK293T, mean ± S.E.M.
Source text: as §5, §2, §3

The target in a further experiment is T8, RXFP4 L118A+V122A (Homo sapiens, UniProt Q8TDU9, L118A/V122A).
T8 construct: RXFP4(1-374)-; expressed in transfected cells; host or cells: HEK293T, transient (pCMV6)
T8 sequence (Q8TDU9 whole entry L118A/V122A): as the sequence (Q8TDU9 whole entry Q205H, the tested form may be a part) above, with L118A, V122A, H205Q counted along it
Nature of the experiment: cAMP accumulation, RXFP4 L118A+V122A. It counts as cell-based. As to conditions: HEK293T.
Source text: as §5, §2, §3

The target in another experiment is T9, RXFP4 L118A (Homo sapiens, UniProt Q8TDU9, L118A).
T9 construct: RXFP4(1-374)-; expressed in transfected cells; host or cells: HEK293T, transient (pCMV6)
T9 sequence (Q8TDU9 whole entry L118A): as the sequence (Q8TDU9 whole entry Q205H, the tested form may be a part) above, with L118A, H205Q counted along it
Nature of the experiment: cAMP accumulation, RXFP4 L118A. The experiment is classed as cell-based. As to conditions: HEK293T.
Source text: as §5, §2, §3

In another experiment the target is T10, RXFP4 Y284A (Homo sapiens, UniProt Q8TDU9, Y284A).
T10 construct: RXFP4(1-374)-; expressed in transfected cells; host or cells: HEK293T, transient (pCMV6)
T10 sequence (Q8TDU9 whole entry Y284A): as the sequence (Q8TDU9 whole entry Q205H, the tested form may be a part) above, with H205Q, Y284A counted along it
Nature of the experiment: cAMP accumulation, RXFP4 Y284A. It counts as cell-based.
Source text: as §5, §2, §3

Setting [1] is: 1.5 μM forskolin, mean ± S.E.M., n = 3.

T1 sequence (Q8TDU9 whole entry T121A): as the sequence (Q8TDU9 whole entry Q205H, the tested form may be a part) above, with T121A, H205Q counted along it
T2 sequence (Q8TDU9 whole entry T295V): as the sequence (Q8TDU9 whole entry Q205H, the tested form may be a part) above, with H205Q, T295V counted along it
T4 sequence (Q8TDU9 whole entry W279A): as the sequence (Q8TDU9 whole entry Q205H, the tested form may be a part) above, with H205Q, W279A counted along it
T5 sequence (Q8TDU9 whole entry L118S): as the sequence (Q8TDU9 whole entry Q205H, the tested form may be a part) above, with L118S, H205Q counted along it
T6 sequence (Q9NSD7 whole entry): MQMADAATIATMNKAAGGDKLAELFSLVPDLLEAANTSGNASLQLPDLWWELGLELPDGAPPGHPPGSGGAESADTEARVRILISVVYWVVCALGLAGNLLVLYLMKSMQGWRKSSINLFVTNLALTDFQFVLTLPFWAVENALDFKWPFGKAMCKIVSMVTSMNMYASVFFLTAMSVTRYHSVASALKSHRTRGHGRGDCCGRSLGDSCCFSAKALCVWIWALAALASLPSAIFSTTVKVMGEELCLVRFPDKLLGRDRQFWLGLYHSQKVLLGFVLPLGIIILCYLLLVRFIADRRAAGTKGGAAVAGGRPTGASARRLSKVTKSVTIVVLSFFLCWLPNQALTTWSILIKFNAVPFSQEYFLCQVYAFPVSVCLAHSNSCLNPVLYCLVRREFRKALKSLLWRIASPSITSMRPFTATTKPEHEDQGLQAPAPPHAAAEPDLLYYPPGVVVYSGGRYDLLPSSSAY

As to `CCOc1cc2c(cc1OC)CCN(C(=O)N1CCOCC1)[C@H]2CCc1c[nH]c2ccc(OC)cc12` [DC591053, (S)-(7-ethoxy-6-methoxy-1-(2-(5-methoxy-1H-indol-3-yl)ethyl)−3,4-dihydroisoquinolin-2(1H)-yl)(morpholino)methanone], the “reaction with parental CHO-K1 cells” value in the experiment with parental CHO-K1 cells is on record as “neither reacted with RXFP3 nor parental CHO-K1 cells”. The “response” value at RXFP4 Q205H and at RXFP4 R208K was “more profound reduction for DC591053 than compound 4” each time. The EC50 on RXFP4 Q205H (setting [1]) is 0.676 µM; on RXFP4 T121A (1.5 μM forskolin, mean ± S.E.M., n = 3 or 4, N.A., not active), 0.724 µM; at RXFP4 T295V (HEK293T, 1.5 μM forskolin, mean ± S.E.M., n = 3 to 5, read-out: pEC50 (converted)), 0.0646 µM; on RXFP4 E100A (1.5 μM forskolin, mean ± S.E.M., N.A., not active) it was 0.107 µM; at RXFP4 R208K (setting [1]), 0.204 µM. Further, the Emax at RXFP4 Q205H (mean ± S.E.M.) was 25.10 ± 6.36 % WT; on RXFP4 T121A (mean ± S.E.M.), 31.53 ± 7.09 % WT; at RXFP4 T295V (HEK293T, mean ± S.E.M.) it was 30.00 ± 4.54 % WT; at RXFP4 E100A (mean ± S.E.M.), 79.27 ± 6.72 % WT; at RXFP4 R208K (mean ± S.E.M.), 60.43 ± 6.52 % WT. In addition, the “decrease of potency vs WT” value at RXFP4 T121A turned out to be 20.9 fold. The “cAMP response” value on RXFP4 E100A is “unchanged agonism”.

`CC[C@H](C)[C@@H]1NC(=O)[C@H](Cc2ccc(O)cc2)NC(=O)[C@H]([C@@H](C)CC)NC(=O)[C@H](C(C)C)NC(=O)[C@H]([C@@H](C)O)NC(=O)[C@H](CCCNC(=N)N)NC(=O)[C@H]([C@@H](C)CC)NC(=O)[C@H](Cc2ccc(O)cc2)NC(=O)[C@H](CCC(=O)O)NC(=O)[C@H](CC(C)C)NC(=O)CNC(=O)[C@@H](NC(=O)[C@H](CC(C)C)NC(=O)[C@H](CCCNC(=N)N)NC(=O)[C@@H](NC(=O)[C@H](CO)NC(=O)[C@H](CCC(=O)O)NC(=O)[C@@H](N)CCCCN)C(C)C)CSSC[C@@H]2NC(=O)[C@@H](NC(=O)[C@H](CC(C)C)NC(=O)[C@@H](NC(=O)[C@H](CCC(N)=O)NC(=O)[C@H](CC(C)C)NC(=O)[C@H](CC(=O)O)NC(=O)[C@@H](N)CCC(N)=O)[C@@H](C)O)CSSC[C@H](NC(=O)CNC(=O)[C@H](CC(=O)O)NC(=O)[C@H]([C@@H](C)O)NC2=O)C(=O)N[C@@H](CO)C(=O)N[C@@H](CCSC)C(=O)N[C@@H]([C@@H](C)O)C(=O)N[C@@H](CC(=O)O)C(=O)N[C@@H](CC(C)C)C(=O)N[C@@H](CO)C(=O)N[C@@H](C)C(=O)N[C@@H](CC(C)C)C(=O)N[C@H](C(=O)O)CSSC[C@@H](C(=O)N[C@@H](C)C(=O)N[C@@H](CO)C(=O)N[C@@H](CO)C(=O)N[C@@H](CCCNC(=N)N)C(=O)N[C@@H](Cc2c[nH]c3ccccc23)C(=O)O)NC1=O` [INSL5, insulin-like peptide 5]: the EC50 is 0.00186 µM at RXFP4 W279A; 0.000692 µM on RXFP4 T295V; 0.00102 µM at RXFP4 V122S (1.5 μM forskolin, n = 3); 0.00182 µM at RXFP4 Y284A. In addition, the Emax came out at 43.30 ± 3.29 % WT on RXFP4 W279A (HEK293T, mean ± S.E.M.); 91.17 ± 6.47 % WT at RXFP4 T295V (HEK293T, mean ± S.E.M.); 45.95 ± 4.97 % WT on RXFP4 V122S; 49.25 ± 4.06 % WT at RXFP4 Y284A (HEK293T, mean ± S.E.M.). Besides, the “response” value on RXFP4 L118S, at RXFP3 WT, at RXFP4 L118A+V122A and at RXFP4 L118A was “inactive” in each case.

Source of the values: paper PMC9886975, “Ligand recognition mechanism of the human relaxin family peptide receptor 4 (RXFP4)” (Nature Communications, 2023).
